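Compound exposure: 48 hours, 5 concentrations, 96-well plates. The concentration for 50% growth inhibition is given as GI50. TGI denotes the concentration required for complete inhibition of growth.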
Experiments:
Assay in all cases: inhibition of tumour cell growth, NCI panel, 48 h
SNB-19 CNS = tested on: SNB-19 CNS
MOLT-4 leukemia = tested on: MOLT-4 leukemia
HL-60(TB) leukemia = tested on: HL-60(TB) leukemia
MALME-3M melanoma = tested on: MALME-3M melanoma
UACC-257 melanoma = tested on: UACC-257 melanoma
M14 melanoma = tested on: M14 melanoma
SF-268 CNS = tested on: SF-268 CNS
NCI/ADR-RES ovarian = tested on: NCI/ADR-RES ovarian
SK-MEL-28 melanoma = tested on: SK-MEL-28 melanoma
PC-3 prostate = tested on: PC-3 prostate

| SMILES | TGI (SNB-19 CNS) [µM] | TGI (MOLT-4 leukemia) [µM] | TGI (HL-60(TB) leukemia) [µM] | TGI (MALME-3M melanoma) [µM] | TGI (UACC-257 melanoma) [µM] | TGI (M14 melanoma) [µM] | GI50 (SNB-19 CNS) [nM] | GI50 (SF-268 CNS) [µM] | TGI (SF-268 CNS) [µM] | GI50 (MOLT-4 leukemia) [nM] | GI50 (HL-60(TB) leukemia) [µM] | GI50 (MALME-3M melanoma) [nM] | GI50 (NCI/ADR-RES ovarian) [nM] | TGI (NCI/ADR-RES ovarian) [µM] | GI50 (UACC-257 melanoma) [nM] | GI50 (M14 melanoma) [nM] | GI50 (SK-MEL-28 melanoma) [nM] | TGI (SK-MEL-28 melanoma) [µM] | GI50 (PC-3 prostate) [µM] | TGI (PC-3 prostate) [µM] |
| --- | --- | --- | --- | --- | --- | --- | --- | --- | --- | --- | --- | --- | --- | --- | --- | --- | --- | --- | --- | --- |
| CNS(=O)(=O)NN(C)S(=O)(=O)c1ccc(Br)cc1 | > 100 | > 100 | > 100 | > 100 | > 100 | > 100 |  |  |  |  |  |  |  |  |  |  |  |  |  |  |
| CCc1nc2ccc(Cc3ccc(C(=O)NO)cc3)cc2c(=O)n1CCc1ccccc1 | 7.57 | 16.7 | 83.1 | 2.1 | 2.47 | 3.24 | 2070 | 1.31 | 3.91 | 637 | 2.25 | 586 | 370 | 4.59 | 640 | 1270 | 1470 | 5.72 |  |  |
| Cc1cc(N/N=C/c2nc(-c3ccccc3)oc2C)c2cc(Cl)ccc2n1 | 4.86 | 4.54 |  | 3.51 | 4.9 | 3.54 | 2120 |  |  | 2040 |  | 1940 | 1840 | 3.95 | 2010 | 1830 | 1710 | 3.16 | 1.8 | 3.55 |
| COc1ccc(/C=C2\CNC/C(=C\c3ccc(OC)cc3)C2=O)cc1 | > 100 | > 100 | 38.5 | > 100 | > 100 | > 100 |  |  | 79.2 |  |  |  |  |  |  |  |  | > 100 |  |  |
| Cc1cc(S(=O)(=O)NC#N)c(S/C(=N\Nc2ccc([N+](=O)[O-])cc2)c2ccccc2)cc1Cl | > 100 | 81.2 | 83.1 | 39.6 | > 100 | 37.3 | 38000 | 19.2 | 43.7 | 4430 | 21.6 | 16500 |  |  | 35900 | 18100 | 17200 | 37.4 | 21.5 | 57.1 |
| O=C1NC2(O)c3ccccc3C(=O)C2(O)N1c1ccccc1 (stereo not given) | > 100 | > 100 | > 100 | > 100 | > 100 | > 100 |  |  | > 100 |  |  |  |  |  |  |  |  | > 100 |  |  |
| COc1cc2c(cc1OC)[C@@H](C(O)c1ccccc1)NCC2 (stereo not given in full) | > 100 | > 100 | > 100 | > 100 | > 100 | > 100 |  |  | > 100 |  |  |  |  |  |  |  |  |  |  |  |
| O[C@]12CCCC[C@H]1CCC2 | > 100 | > 100 | > 100 | > 100 | > 100 | > 100 |  |  | > 100 |  |  |  |  |  |  |  |  | > 100 |  |  |
| O=C(N/N=C/c1cc(Br)cc(Br)c1[O-])c1ccccc1O.O=C(N/N=C/c1cc(Br)cc(Br)c1[O-])c1ccccc1O.[Mn+2] | 36 | 7.94 | 2.81 | 16.6 | 21 | 3.48 |  |  | 10.6 |  |  |  |  |  |  |  |  | 13.8 |  |  |
| CN(C)c1ccc(/C=C2\N=C(c3ccc(N)cc3)OC2=O)cc1 | > 100 | > 100 | > 100 | > 100 | > 100 | > 100 |  |  | > 100 |  |  |  |  |  |  |  |  | > 100 |  |  |
